Results on 29 compounds are retold here after US10005792B2, “Aminoindane-, aminotetrahydronaphthalene- and aminobenzocyclobutane-derived PRMT5-inhibitors” (CTXT PTY LTD, priority 2014, dated 2018).

Each structure is given as a SMILES string. Counter-ions that a name gives are not always drawn.

The target of this assay is Full-length PRMT5 enzyme co-expressed with MEP50 (Homo sapiens (Human), UniProt O14744). Briefly: Revised PRMT5 Biochemical Assay. As to conditions: 1 μM histone H4 derived peptide substrate, 1 μM S-Adenosyl methionine, 4 hours at 37 degree Celsius, Transcreener EPIGEN fluorescence polarisation. As to the method: Compounds of the invention may be tested for in vitro activity in the following assay: A histone H4 derived peptide is used as substrate (amino acid sequence: […]NH2). Full-length PRMT5 enzyme (NCBI Reference sequence NP-006100.2) was co-expressed with Hiss-MEP50 in insect cells and purified via Nickel immobilized metal affinity and gel filtration chromatography (“the enzyme”).
Chain of Full-length PRMT5 enzyme co-expressed with MEP50 (O14744 whole entry): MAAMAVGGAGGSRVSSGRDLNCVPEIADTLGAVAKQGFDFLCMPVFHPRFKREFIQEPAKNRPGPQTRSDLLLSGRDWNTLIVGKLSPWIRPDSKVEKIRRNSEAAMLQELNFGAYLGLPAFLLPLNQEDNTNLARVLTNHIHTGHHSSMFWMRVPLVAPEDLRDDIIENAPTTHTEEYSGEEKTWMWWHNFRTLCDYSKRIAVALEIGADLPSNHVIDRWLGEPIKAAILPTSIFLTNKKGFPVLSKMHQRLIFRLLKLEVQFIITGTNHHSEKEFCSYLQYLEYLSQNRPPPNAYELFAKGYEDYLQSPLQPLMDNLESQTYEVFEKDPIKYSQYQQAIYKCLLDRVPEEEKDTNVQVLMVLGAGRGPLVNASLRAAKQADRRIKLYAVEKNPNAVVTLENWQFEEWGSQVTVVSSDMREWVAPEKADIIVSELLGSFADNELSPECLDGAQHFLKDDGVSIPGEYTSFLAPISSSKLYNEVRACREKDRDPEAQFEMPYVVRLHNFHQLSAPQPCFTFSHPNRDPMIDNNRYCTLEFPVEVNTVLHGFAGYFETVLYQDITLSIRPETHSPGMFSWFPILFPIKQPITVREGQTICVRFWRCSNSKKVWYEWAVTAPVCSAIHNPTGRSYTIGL
Chain of Full-length PRMT5 enzyme co-expressed with MEP50 (Q9BQA1 whole entry partner): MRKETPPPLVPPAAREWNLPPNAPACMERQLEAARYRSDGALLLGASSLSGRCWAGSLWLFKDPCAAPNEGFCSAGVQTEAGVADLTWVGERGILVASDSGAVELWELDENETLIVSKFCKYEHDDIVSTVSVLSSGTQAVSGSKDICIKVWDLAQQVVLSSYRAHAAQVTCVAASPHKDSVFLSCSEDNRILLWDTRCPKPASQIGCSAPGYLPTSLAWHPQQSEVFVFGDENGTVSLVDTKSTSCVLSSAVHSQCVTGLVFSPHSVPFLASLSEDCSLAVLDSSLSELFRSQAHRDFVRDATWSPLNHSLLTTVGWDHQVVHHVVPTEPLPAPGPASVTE
The 6 μL reactions are run in Greiner brand black 384-well low volume assay plates. All reactions contained assay buffer (phosphate buffered saline, 0.01% (v/v) Tween-20, 0.01% (w/v) albumin from chicken egg white, 1 mM Dithiothreitol, 1 μM peptide substrate, 1 μM S-Adenosyl methionine, and 15 ng/reaction enzyme, with the enzyme being omitted from negative control reactions. Compounds were added in a volume of 100 nL from dilution series prepared in DMSO, positive and negative control reactions receiving the same volume DMSO without compound. The plates were sealed with adhesive seals and incubated for 4 hours at 37 degree Celsius. Reaction progress was measured using the Transcreener™ EPIGEN methyltransferase assay (BellBrook Labs, Madison, Wis.) as recommended by the manufacturer. To each reaction 2 μL detection mix were added, containing coupling enzymes, fluorescence polarisation tracer, and AMP antibody. Plates were incubated for 90 minutes before being read on a PerkinElmer EnVision™ plate reader in fluorescence polarisation mode. IC50 values were obtained from the raw readings by calculating percent inhibition (% I) for each reaction relative to controls on the same plate (% I=(I−CN)/(CP−CN) where CN/CP are the averages of the negative/positive reactions, respectively), then fitting the % I data vs. compound concentration [I] to % I=([…]) where A is the lower asymptote, B is the upper asymptote, C is the IC50 value, and D is the slope.
In general terms: Fluorescence polarisation rises when a labelled molecule tumbles more slowly, as on binding a larger partner.

In the case of `O=C(NC[C@@H](O)CNC1Cc2ccccc2C1)c1ccc(C(=O)N2CCC(O)CC2)cc1` [Compound 60, (S)-N-(3-((2,3-dihydro-1H-inden-2-yl)amino)-2-hydroxypropyl)-4-(4-hydroxypiperidine-1-carbonyl)benzamide], the IC50 (commonly the point on the concentration scale where inhibition reaches its midpoint) amounted to 630 nM. In other words, the sub-micromolar range. For `O=C(NC[C@@H](O)CNC1Cc2ccccc2C1)c1ccc(C(=O)N2CCC(CO)CC2)cc1` [Compound 61, (S)-N-(3-((2,3-dihydro-1H-inden-2-yl)amino)-2-hydroxypropyl)-4-(4-(hydroxymethyl)piperidine-1-carbonyl)benzamide] the value was 180 nM; for `O=C(NC[C@@H](O)CNC1Cc2ccccc2C1)c1cccc(C(=O)N2CCOCC2)c1` [Compound 62, (S)-N-(3-((2,3-dihydro-1H-inden-2-yl)amino)-2-hydroxypropyl)-3-(morpholine-4-carbonyl)benzamide], 6920 nM; for `O=C(NCC(O)CNC1Cc2ccccc2C1)c1ccc(N2CCCCC2=O)cc1` (centres unmarked) [Compound 63, N-(3-((2,3-Dihydro-1H-inden-2-yl)amino)-2-hydroxypropyl)-4-(2-oxopiperidin-1-yl)benzamide], 7300 nM. Consider `CC(=O)N1CCC(Nc2ccc(C(=O)NCC(O)CNC3Cc4ccccc4C3)cc2)CC1` (centres unmarked) [Compound 64, 4-((1-Acetylpiperidin-4-yl)amino)-N-(3-((2,3-dihydro-1H-inden-2-yl)amino)-2-hydroxypropyl) benzamide], for which the IC50 is 1100 nM.

On to `O=C(NC[C@@H](O)CNC1Cc2ccccc2C1)c1ccc(C(=O)N2CCS(=O)(=O)CC2)cc1` [Compound 65, (S)—N-(3-((2,3-dihydro-1H-inden-2-yl)amino)-2-hydroxypropyl)-4-(1,1-dioxidothiomorpholine-4-carbonyl)benzamide], for which the IC50 was 1300 nM.

`O=C(NC[C@@H](O)CNC1Cc2ccccc2C1)c1ccc(C(=O)N2CC3(COC3)C2)cc1` [Compound 66, (S)-N-(3-((2,3-dihydro-1H-inden-2-yl)amino)-2-hydroxypropyl)-4-(2-oxa-6-azaspiro[3.3]heptane-6-carbonyl)benzamide] displayed an IC50 of 1560 nM. In the case of `O=C(NC[C@@H](O)CNC1Cc2ccccc2C1)c1ccc(C(=O)N2CCCCC2)nc1` [Compound 68, (S)-N-(3-((2,3-dihydro-1H-inden-2-yl)amino)-2-hydroxypropyl)-6-(piperidine-1-carbonyl)nicotinamide], the IC50 amounted to 6170 nM. For `O=C(NC[C@H](O)CNC1Cc2ccccc2C1)c1ccc(C(=O)N2CCCCC2)nc1` [Compound 69, (R)-N-(3-((2,3-dihydro-1H-inden-2-yl)amino)-2-hydroxypropyl)-6-(piperidine-1-carbonyl)nicotinamide], it took 10000 nM to reach half-maximal inhibition (IC50).

Regarding `CC[C@@H]1COCCN1C(=O)c1ccc(C(=O)NC[C@@H](O)CNC2Cc3ccccc3C2)cc1` [Compound 71, N-((S)-3-((2,3-dihydro-1H-inden-2-yl)amino)-2-hydroxypropyl)-4-((R)-3-ethylmorpholine-4-carbonyl)benzamide], 237 nM corresponded to half-maximal inhibition (IC50).

`CC1(C)CN(C(=O)c2ccc(C(=O)NC[C@@H](O)CNC3Cc4ccccc4C3)cc2)CCO1` [Compound 72, (S)-N-(3-((2,3-dihydro-1H-inden-2-yl)amino)-2-hydroxypropyl)-4-(2,2-dimethylmorpholine-4-carbonyl)benzamide]: half-maximal inhibition (IC50) required 341 nM. The IC50 values of the last two compounds are within 1.5-fold of each other.

In turn, `O=C(NC[C@@H](O)CNC1Cc2ccccc2C1)c1ccc(CC(=O)N2CCCCC2)nc1` [Compound 78, (S)-N-(3-((2,3-dihydro-1H-inden-2-yl)amino)-2-hydroxypropyl)-6-(2-oxo-2-(piperidin-1-yl)ethyl)nicotinamide] displayed a half-inhibitory concentration (IC50) of 5580 nM. Against the preceding compound, the IC50 is about 16-fold higher. For `COCC1CCCCN1C(=O)c1ccc(C(=O)NC[C@@H](O)CNC2Cc3ccccc3C2)cc1` (stereo partly drawn) [Compound 80, N-((S)-3-((2,3-dihydro-1H-inden-2-yl)amino)-2-hydroxypropyl)-4-(2-(methoxymethyl)piperidine-1-carbonyl)benzamide] the value was 253 nM; for `COC1CCN(C(=O)c2ccc(C(=O)NC[C@@H](O)CNC3Cc4ccccc4C3)cc2)C1` (stereo partly drawn) [Compound 81, N-((S)-3-((2,3-dihydro-1H-inden-2-yl)amino)-2-hydroxypropyl)-4-(3-methoxypyrrolidine-1-carbonyl)benzamide], 1370 nM; for `COC1CCN(C(=O)c2ccc(C(=O)NC[C@@H](O)CNC3Cc4ccccc4C3)cc2)CC1` [Compound 86, (S)-N-(3-((2,3-dihydro-1H-inden-2-yl)amino)-2-hydroxypropyl)-4-(4-methoxypiperidine-1-carbonyl)benzamide], 682 nM. Then `COc1cc(CC(=O)N2CCOCC2)ccc1C(=O)NC[C@@H](O)CNC1Cc2ccccc2C1` [Compound 87, (S)-N-(3-((2,3-dihydro-1H-inden-2-yl)amino)-2-hydroxypropyl)-2-methoxy-4-(2-morpholino-2-oxoethyl)benzamide], with 2760 nM; and `O=C(NC[C@@H](O)CNC1Cc2ccccc2C1)c1ccc(C(=O)N2CCC3(CCO3)CC2)cc1` [Compound 88, (S)-N-(3-((2,3-dihydro-1H-inden-2-yl)amino)-2-hydroxypropyl)-4-(1-oxa-7-azaspiro[3.5]nonane-7-carbonyl)benzamide], with 229 nM. For `COC(=O)Cc1ccc(C(=O)NC[C@@H](O)CNC2Cc3ccccc3C2)cc1` [Compound 89, (S)-methyl 2-(4-((3-((2,3-dihydro-1H-inden-2-yl)amino)-2-hydroxypropyl)carbamoyl)phenyl)acetate] the value was 853 nM; for `O=C(NC[C@@H](O)CNC1Cc2ccccc2C1)c1ccc(CC(=O)N2CCOCC2)cc1` [Compound 90, (S)-N-(3-((2,3-dihydro-1H-inden-2-yl)amino)-2-hydroxypropyl)-4-(2-morpholino-2-oxoethyl)benzamide], 3150 nM.

`O=C(NC[C@H](O)CNC1Cc2ccccc2C1)c1ccc(CC(=O)N2CCCC2)cc1` [Compound 91, (R)-N-(3-((2,3-dihydro-1H-inden-2-yl)amino)-2-hydroxypropyl)-4-(2-oxo-2-(pyrrolidin-1-yl)ethyl)benzamide] yielded an IC50 of 1230 nM.

`O=C(NC[C@@H](O)CNC1Cc2ccccc2C1)c1ccc(CC(=O)N2CCCC2)cc1` [Compound 100, (S)-N-(3-((2,3-dihydro-1H-inden-2-yl)amino)-2-hydroxypropyl)-4-(2-oxo-2-(pyrrolidin-1-yl)ethyl)benzamide] displayed an IC50 of 1100 nM.

The compound `CC1(C)COCCN1C(=O)c1ccc(C(=O)NC[C@@H](O)CNC2Cc3ccccc3C2)cc1` [Compound 102, (S)-N-(3-((2,3-dihydro-1H-inden-2-yl)amino)-2-hydroxypropyl)-4-(3,3-dimethylmorpholine-4-carbonyl)benzamide] came in with an IC50 of 482 nM. For `O=C(NC[C@@H](O)CNC1Cc2ccccc2C1)c1ccc(C(=O)N2CCOCC23CCC3)cc1` [Compound 104, (S)-N-(3-((2,3-dihydro-1H-inden-2-yl)amino)-2-hydroxypropyl)-4-(8-oxa-5-azaspiro[3.5]nonane-5-carbonyl)benzamide] the value was 514 nM.

`NC(CNC(=O)c1ccc(C(=O)N2C3CCC2COC3)cc1)CNC1Cc2ccccc2C1` (centres unmarked) [Compound 106, N-(2-Amino-3-((2,3-dihydro-1H-inden-2-yl)amino)propyl)-4-(3-oxa-8-azabicyclo[3.2.1]octane-8-carbonyl)benzamide] yielded an IC50 of 24300 nM. Compared with the last compound, the IC50 is about 47-fold higher. For `NC(=O)C(CNC(=O)c1ccc(C(=O)N2CCOCC2)cc1)CNC1Cc2ccccc2C1` (centres unmarked) [Compound 107, N-(3-Amino-2-(((2,3-dihydro-1H-inden-2-yl)amino)methyl)-3-oxopropyl)-4-(morpholine-4-carbonyl)benzamide] the value was 52200 nM; for `O=C(NCC(CO)CNC1Cc2ccccc2C1)c1ccc(C(=O)N2CCOCC2)cc1` (centres unmarked) [Compound 108, N-(3-((2,3-Dihydro-1H-inden-2-yl)amino)-2-(hydroxymethyl)propyl)-4-(morpholine-4-carbonyl)benzamide], 21200 nM; for `CS(=O)(=O)N1CC(Nc2cc(C(=O)NC[C@@H](O)CNC3Cc4ccccc4C3)ccn2)C1` [Compound 109, (S)—N-(3-((2,3-Dihydro-1H-inden-2-yl)amino)-2-hydroxypropyl)-2-((1-(methylsulfonyl)azetidin-3-yl)amino)isonicotinamide bis 2,2,2-trifluoroacetic acid salt], 11100 nM. For `CC(=O)N1CC(Nc2cc(C(=O)NC[C@@H](O)CNC3Cc4ccccc4C3)ccn2)C1` [Compound 110, (S)-2-((1-Acetylazetidin-3-yl)amino)-N-(3-((2,3-dihydro-1H-inden-2-yl)amino)-2-hydroxypropyl)isonicotinamide bis 2,2,2-trifluoroacetic acid salt] the value was 166 nM; for `CN(C[C@H](O)CNC(=O)c1ccc(C(=O)N2CCOCC2)cc1)C1Cc2ccccc2C1` [Compound 112, (R)—N-(3-((2,3-Dihydro-1H-inden-2-yl)(methyl)amino)-2-hydroxypropyl)-4-(morpholine-4-carbonyl)benzamide], 9410 nM.
